Residue numbers refer to the chain shown, from its start.
Columns and labels:
RET kinase Wild Type = RET kinase Wild Type (Homo sapiens, UniProt P07949); experiment: biochemical;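 also: HTRF kinase activity assay on RET enzyme, 1 h reaction at 22 °C, dual-wavelength readout as percent of control, DMSO-only wells as 100%, pre-quenched reactions as 0%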
[1] = molecular target: T1, HEK-293 cells expressing a G810S mutant RET Kif5b-RET fusion protein (Homo sapiens, UniProt P07949, G810S); experiment: RET G810S Mutant Cell Assay (phospho-RET Tyr1062); type: cell-based; conditions: HEK-293 Kif5b-RET G810S, 1 hour incubation, phospho-RET normalized to GAPDH
T1 construct: KIF5B (N-terminal portion incl. coiled-coil); expressed in transfected cells; host or cells: HEK-293
T1 sequence (P07949 713-1063 G810S limits assumed): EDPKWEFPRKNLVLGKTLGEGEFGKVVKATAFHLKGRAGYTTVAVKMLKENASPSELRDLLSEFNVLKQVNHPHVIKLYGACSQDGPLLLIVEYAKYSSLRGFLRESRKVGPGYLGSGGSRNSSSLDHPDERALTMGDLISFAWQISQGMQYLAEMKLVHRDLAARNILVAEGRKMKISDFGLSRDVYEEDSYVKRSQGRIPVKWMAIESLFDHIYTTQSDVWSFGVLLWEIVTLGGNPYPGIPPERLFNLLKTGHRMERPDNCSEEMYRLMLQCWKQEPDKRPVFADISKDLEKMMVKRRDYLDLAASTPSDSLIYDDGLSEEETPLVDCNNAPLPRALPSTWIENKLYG
Description: (§1) The cellular potency of compounds inhibiting RET kinase were determined in HEK-293 cells expressing a G810R or G810S mutant RET Kif5b-RET fusion protein. Briefly, HEK-293 cells expressing a G810R or G810S mutant RET Kif5b-RET fusion protein were plated at 50K cells/well in 96 well poly-D-Lysine coated plates the day prior to the assay. The cells were incubated for 1 hour with test compound in DMEM (Dulbecco's Modified Eagle Medium) at a final DMSO concentration of 0.5%. […] After 1 hour the media was removed, the cells were fixed with 3.8% formaldehyde for 20 min, washed with PBS, and permeabilized for 10 min with 100% methanol. The plates were then washed with PBS-0.05% Tween20, and blocked with LI-COR Blocking solution (LI-COR Catalog No. 927-40000) for 1 hour. Plates were washed with PBS-0.05% Tween20, then incubated with anti-phospho-RET (Tyr1062) (Santa Cruz Catalog No. sc-20252-R) antibody and anti-GAPDH (Millipore Catalog No. MAB374) antibody for 2 hours. The plates were washed with PBS-0.05% Tween20, and incubated with anti-rabbit 680 (Molecular Probes Catalog No. A21109) and anti-mouse 800 (LI-COR Catalog No. 926-32210) secondary antibodies for 1 hour. All antibodies were diluted in LI-COR Block containing 0.05% Tween. The plates were washed with PBS-0.05% Tween20,100 μL PBS was added to each well, and the plates were read on a LI-COR Aerius fluorescent plate reader. The phospho-RET signal was normalized to the GAPDH signal. […] The POC values are fit to a 4 parameter logistic curve. The IC50 value is the point where the curve crosses 50 POC.

RET kinase V804M = RET kinase V804M (Homo sapiens, UniProt P07949, V804M); experiment: RET Enzyme Assay (CisBio HTRF KinEASE-TK), V804M; type: biochemical; conditions: read-out: RET V804M Enz FRET IC50
G810S mutant RET kinase = G810S mutant RET kinase (Homo sapiens, UniProt P07949, G810S); experiment: biochemical;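 also: HTRF KinEASE-TK kinase assay with recombinant enzyme, 1 h at 22 °C, dual-wavelength ratiometric read-out, percent of control (DMSO-only = 100, pre-quenched reaction = 0)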
Description: (§2) The potency of compounds inhibiting several different RET kinase forms (Wild Type, V804M, G810R, & G810S) were determined using CisBio's HTRF® KinEASE™-TK assay technology. […] After a 1 hour incubation at 22° C., the extent of reaction was determined using a PerkinElmer EnVision multimode plate reader via HTRF dual wavelength detection, and the percent of control (POC) was calculated using a ratiometric emission factor. One hundred POC was determined using DMSO only samples (no compound present), and 0 POC was determined using pre-quenched control reactions.
(§3) The potency of a compound inhibiting G810R or G810S mutant RET kinase was determined using CisBio's HTRF® KinEASE™-TK assay technology. The assays contained G810R or G810S mutant RET produced at Array Biopharma, Inc. (1 nM enzyme). […] After a 1-h incubation at 22° C., the extent of reaction was determined using a PerkinElmer EnVision multimode plate reader via HTRF dual wavelength detection, and the percent of control (POC) was calculated using a ratiometric emission factor. One hundred POC was determined using no test compounds, and 0 POC was determined using pre-quenched control reactions.

[2] = molecular target: T2, HEK-293 cells expressing a Kif5b-RET fusion protein (Homo sapiens, UniProt P07949); experiment: RET Cell Assay (phospho-RET Tyr1062); type: cell-based; conditions: HEK-293 Kif5b-RET, 1 hour incubation, phospho-RET normalized to GAPDH; read-out: KIF5B-RET pTYR1062 Cell IC50
T2 construct: KIF5B (N-terminal portion incl. coiled-coil); expressed in transfected cells; host or cells: HEK-293; the other entry of the earlier key: KIF5B (P33176, Kinesin-1 heavy chain)
T2 sequence (P07949 713-1063 limits assumed): T1 sequence (P07949 713-1063 G810S limits assumed) with S98G
Description: as §1, with “a” for “a G810R or G810S mutant RET”, “PBS is” for “PBS was”, “values were” for “values are”

G810R mutant RET kinase = G810R mutant RET kinase (Homo sapiens, UniProt P07949, G810R); experiment: biochemical;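 also: HTRF KinEASE-TK enzymatic assay with 1 nM recombinant RET G810R, 1 h at 22 °C, dual-wavelength ratiometric readout, 100% control without compound, 0% from pre-quenched reactions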
Chain of G810R mutant RET kinase (P07949 29-1114 G810R): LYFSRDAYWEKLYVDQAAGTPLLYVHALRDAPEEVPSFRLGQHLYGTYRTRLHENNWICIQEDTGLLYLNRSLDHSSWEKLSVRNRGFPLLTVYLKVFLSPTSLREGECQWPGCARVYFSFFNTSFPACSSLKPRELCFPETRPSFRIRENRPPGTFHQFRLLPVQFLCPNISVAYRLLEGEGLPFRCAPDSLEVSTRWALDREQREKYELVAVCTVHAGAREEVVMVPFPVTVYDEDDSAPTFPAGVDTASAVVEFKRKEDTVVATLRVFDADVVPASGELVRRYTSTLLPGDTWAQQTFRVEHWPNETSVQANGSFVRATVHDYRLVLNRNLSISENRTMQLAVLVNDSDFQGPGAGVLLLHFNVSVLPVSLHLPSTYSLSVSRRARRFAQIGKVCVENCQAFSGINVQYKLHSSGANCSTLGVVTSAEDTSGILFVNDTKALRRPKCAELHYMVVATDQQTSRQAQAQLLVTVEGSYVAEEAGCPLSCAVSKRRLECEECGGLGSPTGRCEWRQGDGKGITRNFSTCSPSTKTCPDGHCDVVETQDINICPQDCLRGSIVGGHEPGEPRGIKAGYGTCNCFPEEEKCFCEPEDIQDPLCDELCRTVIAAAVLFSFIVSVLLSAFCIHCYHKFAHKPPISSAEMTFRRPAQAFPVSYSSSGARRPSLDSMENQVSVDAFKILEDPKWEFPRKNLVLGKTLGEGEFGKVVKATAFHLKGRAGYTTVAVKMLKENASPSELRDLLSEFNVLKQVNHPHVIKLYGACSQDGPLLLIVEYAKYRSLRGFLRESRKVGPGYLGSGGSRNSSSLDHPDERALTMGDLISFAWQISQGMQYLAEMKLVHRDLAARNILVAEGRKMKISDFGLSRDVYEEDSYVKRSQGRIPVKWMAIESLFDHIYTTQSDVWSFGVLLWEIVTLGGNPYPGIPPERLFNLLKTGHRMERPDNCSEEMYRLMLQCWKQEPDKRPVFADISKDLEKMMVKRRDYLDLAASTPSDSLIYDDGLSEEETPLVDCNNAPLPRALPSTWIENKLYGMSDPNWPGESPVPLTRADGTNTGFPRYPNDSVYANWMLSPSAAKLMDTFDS
Description: as §2, §3

Chain of G810S mutant RET kinase (P07949 29-1114 G810S): as the sequence (P07949 29-1114 G810R) above, with R782S counted along it
Chain of RET kinase V804M (P07949 29-1114 V804M): as the sequence (P07949 29-1114 G810R) above, with V776M, R782G counted along it
Chain of RET kinase Wild Type (P07949 29-1114): as the sequence (P07949 29-1114 G810R) above, with R782G counted along it

Row | Compound | IC50 (RET kinase Wild Type) [nM] | IC50 [1] [nM] | IC50 (RET kinase V804M) [nM] | IC50 (G810S mutant RET kinase) [nM] | IC50 [2] [nM] | IC50 (G810R mutant RET kinase) [nM]
1 | Nc1ncnc2c1c1c(n2[C@H]2C[C@H](CO)C2)CCC(O)c2c-1noc2C1CC1 (stereo partly drawn) [Example 135, 11-Amino-3-cyclopropyl-7-((1r,3r)-3-(hydroxymethyl)cyclobutyl)-4,5,6,7-tetrahydroisoxazolo[4″,3″:6′,7′]cyclohepta[1′,2′:4,5]pyrrolo[2,3-d]pyrimidin-4-ol 2,2,2-trifluoroacetate] | 45 | 103 | 152 | 229 | 54 | 150
2 | CC1(n2c3c(c4c(N)ncnc42)-c2noc(C4CC4)c2C(O)CC3)CC1 (stereo not drawn) [Example 149, 11-Amino-3-cyclopropyl-7-(1-methylcyclopropyl)-4,5,6,7-tetrahydroisoxazolo[4″,3″:6′,7′]cyclohepta[1′,2′:4,5]pyrrolo[2,3-d]pyrimidin-4-ol] | 7 | 20 | 22 | 41 | 2 | 70
3 | COC(=O)c1ccc(-n2c3c(c4c(N)ncnc42)-c2noc(C4CC4)c2C(O)CC3)cc1 (stereo not drawn) [Example 113, Methyl 4-(11-amino-3-cyclopropyl-4-hydroxy-5,6-dihydroisoxazolo[4″,3″:6′,7′]cyclohepta[1′,2′:4,5]pyrrolo[2,3-d]pyrimidin-7(4H)-yl)benzoate 2,2,2-trifluoroacetate] | 102 | 274 | 169 | 63 | 513 | 106
4 | Nc1ncnc2c1c1c(n2[C@@H]2C[C@@H](O)[C@@H](O)C2)CCC(O)c2c-1noc2C1CC1 (stereo partly drawn) [Example 130, (1r,2s,4s)-4-(11-amino-3-cyclopropyl-4-hydroxy-5,6-dihydroisoxazolo[4″,3″:6′,7′]cyclohepta[1′,2′:4,5]pyrrolo[2,3-d]pyrimidin-7(4H)-yl)cyclopentane-1,2-diol] | 12 | 131 | 64 | 32 | 34 | 40
5 | Nc1ncnc2c1c1c(n2C(CF)CF)CCC(O)c2c-1noc2C1CC1 (stereo not drawn) [Example 122, 11-amino-3-cyclopropyl-7-(1,3-difluoropropan-2-yl)-4,5,6,7-tetrahydro-isoxazolo[4″,3″:6′,7′]cyclohepta[1′,2′:4,5] pyrrolo[2,3-d]pyrimidin-4-ol] | 14 | 77 | 38 | 26 | 31 | 28
6 | CC(C)n1c2c(c3c(N)ncnc31)-c1c(Cl)c3ccc(C(=O)NC4CC4)cc3n1CCC2 [Example 102, 1-Amino-14-chloro-N-cyclopropyl-5-isopropyl-5,6,7,8-tetrahydropyrimido[5″,4″:4′,5′]pyrrolo[3′,2′:3,4]azepino[1,2-a]indole-11-carboxamide] | 128 | 86 | 483 | 183 | 35 | 760

Results, then the compound that gave them:

Row | IC50 (RET kinase Wild Type) [nM] | IC50 [1] [nM] | IC50 (RET kinase V804M) [nM] | IC50 (G810S mutant RET kinase) [nM] | IC50 [2] [nM] | IC50 (G810R mutant RET kinase) [nM] | Compound
7 | 41 | 118 | 120 | 84 | 74 | 87 | Nc1ncnc2c1c1c(n2C2CCOC2)CCC(O)c2c-1noc2C1CC1 (stereo not drawn) [Example 121, 11-amino-3-cyclopropyl-7-(tetrahydrofuran-3-yl)-4,5,6,7-tetrahydro-isoxazolo[4″,3″:6′,7′]cyclohepta[1′,2′:4,5] pyrrolo[2,3-d]pyrimidin-4-ol]
8 | 88 | 435 | 349 | 160 | 157 | 98 | Nc1ncnc2c1c1c(n2C2CCC(O)C2)CCC(=O)c2c-1noc2C1CC1 (mixture of isomers) [Example 128, 11-Amino-3-cyclopropyl-7-(3-hydroxycyclopentyl)-6,7-dihydroisoxazolo[4″,3″:6′,7′]cyclohepta[1′,2′:4,5]pyrrolo[2,3-d]pyrimidin-4(5H)-one 2,2,2-trifluoroacetate]
9 | 233 | 15 | 2860 | 914 | 10 | 1610 | CC(C)n1c2c(c3c(N)ncnc31)-c1cc3ccc(C(=O)Nc4ccn(-c5ccccc5)n4)cc3n1CCC2 [Example 100, 1-amino-5-isopropyl-N-(1-phenyl-1H-pyrazol-3-yl)-5,6,7,8-tetrahydropyrimido[5″,4″:4′,5′]pyrrolo[3′,2′: 3,4]azepino[1,2-a]indole-11-carboxamide]
10 | 24 | 177 | 57 | 101 | 40 | 61 | Nc1ncnc2c1c1c(n2C2CCC2)CCC(O)c2c-1noc2C1CC1 (stereo not drawn) [Example 144, 11-Amino-7-cyclobutyl-3-cyclopropyl-4,5,6,7-tetrahydroisoxazolo[4″,3″:6′,7]cyclohepta[1′,2′:4,5]pyrrolo[2,3-d]pyrimidin-4-ol 2,2,2-trifluoroacetate]
11 | 38 | 280 | 60 | 155 | 67 | 52 | COC(=O)[C@H]1C[C@@H](n2c3c(c4c(N)ncnc42)-c2noc(C4CC4)c2C(O)CC3)C1 (stereo partly drawn) [Example 137, Methyl (1s,3s)-3-(11-amino-3-cyclopropyl-4-hydroxy-5,6-dihydroisoxazolo[4″,3″:6′,7′]cyclohepta[1′,2′:4,5]pyrrolo[2,3-d]pyrimidin-7(4H)-yl)cyclobutane-1-carboxylate 2,2,2-trifluoroacetate]

Reference: patent US11964988B2, “Fused heterocyclic compounds as RET kinase inhibitors” (ARRAY BIOPHARMA INC., priority 2018, dated 2024)
